≈ marks a conversion by molar mass, not a printed value.
System: P388
Experiment: Cytotoxicity against mouse P388 cells
Type: functional, cell-based

## CC(=O)O[C@@H]1C2=C(C)C(=O)C[C@@](O)([C@@H](OC(=O)c3ccccc3)[C@@H]3[C@]4(OC(C)=O)CO[C@@H]4C[C@H](O)[C@@]3(C)[C@H]1O)C2(C)C
  IC50: 21 µg/mL (≈ 35.8 µM)

## C=C1[C@@H](OC(=O)/C=C/c2ccccc2)C[C@H](OC(C)=O)[C@@]2(C)[C@@H](OC(C)=O)[C@H](OC(C)=O)C3=C(C)[C@@H](OC(C)=O)C[C@@H]([C@@H](O)[C@H]12)C3(C)C
  IC50: 3.9 µg/mL (≈ 5.85 µM)

## CC(=O)O[C@H]1C[C@H]2OC[C@@]2(OC(C)=O)[C@H]2[C@H](OC(=O)c3ccccc3)[C@]3(C(C)(C)O)C[C@H](O)C(C)=C3[C@@H](O)[C@H](O)[C@]12C
  IC50: 44 µg/mL (≈ 74.7 µM)

Source: ChEMBL document CHEMBL1144131, “The taxane diterpenoids” (J Nat Prod, 1999)
